In patent US6846933B1, “Antimycobacterial compounds and method for making the same” (priority 2000, dated 2005):
Values after ≈ are worked out from the molar mass of the structure shown. Read-outs that look alike come from different tables or passages of the source.

Legend:
[1] = system: M. tuberculosis strain resistant to isoniazid (ATCC 35822); experiment: microbe, parasite or virus in culture; format: cell-based; settings: Mycobacterium tuberculosis
[2] = system: M. tuberculosis strain resistant to rifampin (ATCC 35838); experiment: microbe, parasite or virus in culture; format: cell-based; settings: Mycobacterium tuberculosis
[3] = ATCC35822, read-out: MIC INH-R (ug/ml)
[4] = ATCC35838, read-out: MIC RMP-R (ug/ml)

With `CO[C@H]1/C=C/O[C@@]2(C)Oc3c(C)c(O)c4c(O)c(c(/C=N/N5CCN(C)CC5)c(O)c4c3C2=O)NC(=O)/C(C)=C\C=C\[C@H](C)[C@H](O)[C@@H](C)[C@@H](O)[C@@H](C)[C@H](OC(C)=O)[C@@H]1C` [RMP, rifampin, reference compound] the MIC ([1]; ATCC35822, read-out: MIC of RMP vs INH-R (Comment, Table 9)) was 0.5 µg/mL and the MIC ([2]; ATCC35838, read-out: MIC of RMP vs RMP-R (Comment, Table 9)) was over 8 µg/mL.

`CC1C/C(=N/NC(=O)c2ccncc2)CC(C)(C)C1` (stereo not shown) [Sample ID 114353] showed an MIC [1, 3] of under 6.25 µg/mL and an MIC [2, 4] of under 0.1 µg/mL.

Compound `CC(C)=CCCC(C)C/C=N/NC(=O)c1ccncc1` (stereo not shown) [Sample ID 102044] has an MIC [1, 3] of 3.13 µg/mL (≈ 11.4 µM) and an MIC [2, 4] of under 0.1 µg/mL.

Work on `O=C(N/N=C/C=C(c1ccccc1)c1ccccc1)c1ccncc1` [Sample ID 132532] yielded an MIC [1, 3] of over 3.2 µg/mL and an MIC [2, 4] of 0.1 µg/mL (≈ 0.305 µM).

`CCOC(=O)/C(CCc1ccccc1)=N\NC(=O)c1ccncc1` [Sample ID 132358] gave an MIC [1, 3] of over 3.2 µg/mL and an MIC [2, 4] of 0.1 µg/mL (≈ 0.307 µM).

In the case of `O=C(N/N=C/c1cc(Cl)ccc1Cl)c1ccncc1` [Sample ID 117150], the MIC [1, 3] is reported as over 3.25 µg/mL and the MIC [2, 4] is reported as under 0.05 µg/mL.

`COc1ccc(/C=N/NC(=O)c2ccncc2)cc1` [Sample ID 102866] showed an MIC [1, 3] of 3.25 µg/mL (≈ 12.7 µM) and an MIC [2, 4] of under 0.05 µg/mL.

`O=C(NN=C1CCCC1)c1ccncc1` [Sample ID 111298] gave an MIC [1, 3] of over 0.75 µg/mL and an MIC [2, 4] of 0.05 µg/mL (≈ 0.246 µM).
